Several values for one entry are separate records, joined by “and”; a condition that tells them apart may be missing. Equal values may be shown once.
How the values were obtained:
[1] = Cytotoxicity on THP-1 cell line (MTT); assay type: cell-based; conditions: human, THP-1 cells, THP1 cell line
Protocol: The plates were incubated for 72 h at 37 °C. Each well plate was then microscope-examined for detecting possible precipitate formation before the medium was aspirated from the wells. 100 µL of MTT solution (0.5 mg/mL in medium) were then added to each well. Cells were incubated for 2 h at 37 °C. […] Plates were shaken vigorously (300 rpm) for 10 min. The absorbance was measured at 570 nm using a BIO-TEK ELx808 Absorbance Microplate Reader. DMSO was used as blank and doxorubicin (purchased from Sigma Aldrich) as positive control. Cell viability was calculated as percentage of control (cells incubated with DMSO). […] (Palo Alto, CA, USA). CC50 values represent the mean value calculated from three separate experiments.

[2] = system: L. infantum axenic amastigotes; assay: Antileishmanial activity on L. infantum axenic amastigotes (luciferase assay); assay type: cell-based; conditions: Leishmania infantum, 48 h, read-out: EC50 L. infantum Axenic Ama.
Protocol: L. infantum promastigotes were harvested in logarithmic phase of growth by centrifugation at 900× g for 10 min. The supernatant was removed carefully and was replaced by the same volume of RPMI 1640 complete medium at pH 5.4 and incubated for 24 h at 24 °C. The acidified promastigotes were then incubated for 24 h at 37 °C in a ventilated flask to transform them into axenic amastigotes. The amastigote stage was checked both by electron microscopy (short flagellum with small bulbous tip extending beyond a spherical cell body) and RT-PCR to confirm the overexpression of ATG8 and amastin genes in amastigotes, relative to promastigotes. The effects of the tested compounds on the growth of L. infantum axenic amastigotes were assessed as follows. L. infantum amastigotes were incubated at a density of 2 × 10^6 parasites/mL in sterile 96-well plates with various concentrations of compounds dissolved in DMSO (final concentration less than 0.5% v/v), in duplicate. Appropriate controls treated with DMSO, amphotericin B, miltefosine, fexinidazole and fexinidazole sulfone were added to each set of experiments. After a 48 h incubation period at 37 °C, each plate-well was then microscopically examined to detect any precipitate formation.
• Luciferase activity and determination of EC50 were performed as above.

[3] = Cytotoxicity evaluation on HepG2 cell line (MTT); assay type: cell-based; conditions: human, HepG2 cells
Protocol: The tested molecules’ cytotoxicity was assessed according to the method of Mosmann with slight modifications. […] Triplicate assays were performed for each sample. Each plate-well was then microscope-examined to detect possible precipitate formation before the medium was aspirated from the wells. 100 µL of MTT (3-(4,5-dimethyl-2-thiazolyl)-2,5-diphenyl-2H-tetrazolium bromide) solution (0.5 mg/mL in medium without FCS) were then added to each well. […] Plates were shaken vigorously (700 rpm) for 10 min. The absorbance was measured at 570 nm with 630 nm as reference wavelength using a BIO-TEK ELx808 Absorbance Microplate Reader. DMSO was used as blank and doxorubicin (purchased from Sigma Aldrich) as positive control. Cell viability was calculated as percentage of control (cells incubated without compound). […] (Palo Alto, CA, USA)). CC50 values represent the mean value calculated from three separate experiments.

[4] = Redox potential of the nitro group by cyclic voltammetry; assay type: physicochemical; conditions: cyclic voltammetry in DMSO, corrected versus NHE
Protocol: Voltammetric measurements were carried out with a potentiostat Autolab PGSTAT100 (ECO Chemie, Utrecht, The Netherlands) controlled by GPES 4.09 software (ECO Chemie, Utrecht, The Netherlands). Experiments were performed at room temperature in a homemade airtight three–electrode cell connected to a vacuum/argon line. The reference electrode consisted of a saturated calomel electrode (SCE) separated from the solution by a bridge compartment. The counter electrode was a platinum wire of 1 cm^2 apparent surface. The working electrode was a GC microdisk (1.0 mm in diameter–Bio-logic SAS). The supporting electrolyte (nBu4N)[PF6] (Fluka, 99% puriss electrochemical grade) and the solvent DMSO (Sigma-Aldrich puriss p.a. dried <0.02% water) were used as received and simply degassed under argon. The solutions used during electrochemical analyses were typically 10^−3 M in compound and 0.1 M in supporting electrolyte. Before each measurement, the solutions were degassed by bubbling Ar, and the working electrode was polished with a polishing machine (Presi P230, Eybens, France). Under the experimental conditions adopted in this work, the half-wave potential (E1/2) of the ferrocene Fc+/Fc couple in DMSO was E1/2 = 0.45 V vs. SCE. Experimental peak potentials were measured versus SCE and converted to NHE by adding 0.241 V.

[5] = system: L. donovani promastigotes; assay: Antileishmanial activity against L. donovani promastigotes (MTT assay); assay type: cell-based; conditions: Leishmania donovani; promastigotes, 72 h, MTT; read-out: EC50 L. donovani Pro.
Protocol: The Leishmania species used in this study were L. donovani (MHOM/IN/00/DEVI) purchased from CNR Leishmania (Montpellier, France). Leishmania promastigote forms were grown in Schneider’s Drosophila medium (Life Technologies, Saint-Aubin, France) supplemented with 100 U/mL penicillin, 100 µg/mL streptomycin, 2 mM L-glutamine and 20% FCS (Life Technologies, Saint-Aubin, France) at 27 °C. The in vitro evaluation of the tested compound’s antileishmanial activity on promastigote forms was carried out by MTT assay according to the Mosmann protocol with some modifications. Briefly, promastigotes in log-phase were incubated at an average density of 10^6 parasites/mL in sterile 96-well plates with various concentrations of compound dissolved in DMSO (final concentration less than 0.5% v/v), in duplicate. Appropriate controls treated with DMSO, Miltefosine, Amphotericin B, Fexinidazole, and Fexinidazole sulfone (reference drugs purchased from Sigma-Aldrich, Saint-Louis, Missouri, USA) were added to each set of experiments. After a 72 h incubation period at 27 °C, parasitic metabolic activity was determined. Each plate-well was then microscope-analyzed to detect any precipitate formation. 20 µL of MTT (3-(4,5-dimethylthiazol-2-yl)-2,5-diphenyltetrazolium bromide) (Sigma-Aldrich, Saint-Louis, Missouri, USA) solution (5 mg/mL in PBS) were added to each well and incubated for 4 h at 27 °C. The enzyme reaction was then stopped by addition of 100 µL of 50% isopropanol–10% sodium dodecyl sulfate. Plates were shaken vigorously at 300 rpm for 10 min. The absorbance was measured at 570 nm in a BIO-TEK Elx808 (Biotek, Colmar, France) absorbance microplate reader. […] EC50 values were calculated by non-linear regression analysis processed dose-response curves, using TableCurve 2D V5.0 software (Systat Software Inc. (Palo Alto, CA, USA)). EC50 values represent the mean value calculated from at least three separate experiments.

[6] = system: L. infantum promastigotes; assay: Antileishmanial activity against L. infantum promastigotes (luciferase assay); assay type: cell-based; conditions: Leishmania infantum, 72 h, read-out: EC50 L. infantum Pro.
Protocol: L. infantum promastigotes (MHOM/MA/67/ITMAP-263, CNR Leishmania, Montpellier, France, expressing luciferase activity) were used in the following tests. The effects of the tested compounds on the growth of L. infantum promastigotes were assessed by Luciferase Assay. Briefly, promastigotes in log-phase in RPMI 1640 medium supplemented with 10% fetal calf serum (FCS), 2 mM L-glutamine and antibiotics (100U/mL penicillin, 100 µg/mL streptomycin and 50µg/mL geneticin), were incubated at an average density of 10^6 parasites/mL (100 µL/well) in sterile 96-well plates with various concentrations of compounds dissolved in DMSO (final concentration less than 0.5% v/v), in duplicate. Appropriate controls (100 µL/well) treated by DMSO and reference drugs (purchased for the majority from Sigma Aldrich) were added to each set of experiments. After a 72 h incubation period at 24 °C, each plate-well was then microscope-examined for detecting possible precipitate formation. To estimate the luciferase activities of promastigotes, 80 µL of each well are transferred in white 96-well plates, Steady Glow reagent (Promega) was added according to manufacter’s instructions, and plates were incubated for 2 min. The luminescence was measured in a FLUOstar Omega (BMG Labtech, Champigny-sur-Marne, France). […] EC50 were calculated by non-linear regression analysis processed on dose–response curves, using TableCurve 2D V5 software.

SMILES	CC50 at 72 h [1] [µM]	melting point [°C]	EC50 [2] [µM]	CC50 at 72 h [3] [µM]	E0 (redox potential of the nitro group) [4]	EC50 [5] [µM]	EC50 [6] [µM]
O=[N+]([O-])c1c(CS(=O)(=O)c2ccc(Cl)cc2)nc2c(Br)cc(Cl)cn12 [Compound 2d, 8-Bromo-6-Chloro-2-[(4-Chlorophenylsulfonyl)methyl]-3-Nitroimidazo[1,2-a]pyridine]	> 31.2	222	2.1 ± 0.3	> 12.5	−0.62 V	3 ± 0.4	3.5 ± 0.4
O=[N+]([O-])c1c(CS(=O)(=O)c2ccc(F)cc2)nc2c(Cl)cc(Cl)cn12 [Compound 1c, 6,8-Dichloro-2-[(4-fluorophenylsulfonyl)methyl]-3-nitroimidazo[1,2-a]pyridine]	22.5 ± 1.1	224	> 1.6	> 7.8	−0.60 V and −0.6 V	5.8 ± 1.9	> 100
O=[N+]([O-])c1c(CS(=O)(=O)c2ccc(C(F)(F)F)cc2)nc2c(Cl)cc(Cl)cn12 [Compound 1d, 6,8-Dichloro-3-Nitro-2-[(4-Trifluoromethylphenylsulfonyl)methyl]imidazo[1,2-a]pyridine]	23.2 ± 1.9	196	2.2 ± 0.1	> 15.6	−0.60 V and −0.6 V	4.1 ± 0.4	> 100
CC(C)S(=O)(=O)Cc1nc2c(Sc3ccc(Cl)cc3)cc(Cl)cn2c1[N+](=O)[O-] [Compound 3g, 6-Chloro-8-[(4-Chlorophenyl)thio]-2-[(isopropylsulfonyl)methyl]-3-Nitroimidazo[1,2-a]pyridine]	> 31.2	208	3.2 ± 0.1	22.2 ± 5.5	−0.63 V	2.2 ± 0.3	2.4 ± 0.6
O=[N+]([O-])c1c(CS(=O)(=O)CCC(F)(F)F)nc2c(Br)cc(Cl)cn12 [Compound 2j, 8-Bromo-6-Chloro-3-Nitro-2-[(3,3,3-Trifluoropropylsulfonyl)methyl]imidazo[1,2-a]pyridine]	26 ± 1.2	181	20.1 ± 5.6	42.9 ± 12.3	−0.60 V and −0.6 V	14.4 ± 1.6	1.9 ± 0.4
O=[N+]([O-])c1c(CS(=O)(=O)C2CC2)nc2c(Br)cc(Cl)cn12 [Compound 2i, 8-Bromo-6-Chloro-2-[(cyclopropylsulfonyl]methyl)-3-Nitroimidazo[1,2-a]pyridine]	> 50	250	> 50	> 6.2	−0.63 V	> 25	> 50
O=[N+]([O-])c1c(CS(=O)(=O)c2ccc(F)cc2)nc2c(Br)cc(Cl)cn12 [Compound 2e, 8-Bromo-6-Chloro-2-[(4-Fluorophenylsulfonyl)methyl]-3-Nitroimidazo[1,2-a]pyridine]	33.3 ± 1.4	222	3.3 ± 0.1	> 7.8	−0.64 V	2.8 ± 0.5	> 100
CC(C)S(=O)(=O)Cc1nc2c(Br)cc(Cl)cn2c1[N+](=O)[O-] [Compound 2h, 8-Bromo-6-Chloro-2-[(isopropylsulfonyl)methyl]-3-Nitroimidazo[1,2-a]pyridine]	> 100	183	> 50	> 62.5	−0.65 V	> 25	61.2 ± 3.4
COc1cccc2c1C(=O)c1c(O)c3c(c(O)c1C2=O)C[C@@](O)(C(=O)CO)C[C@@H]3O[C@H]1C[C@H](N)[C@H](O)[C@H](C)O1 [Doxorubicin, reference compound]	0.8 ± 0.1	–	–	0.2 ± 0.02	–	–	–
O=[N+]([O-])c1c(C[S+]([O-])c2ccccc2)nc2c(Br)cc(Cl)cn12 (centres unmarked) [Compound 5, 8-Bromo-6-Chloro-3-Nitro-2-[(phenylsulfinyl)methyl]imidazo[1,2-a]pyridine]	–	198	–	–	–	–	–
